Data as given in patent US20240109900A1, “AZABICYCLIC SHP2 INHIBITORS” (IRBM S.P.A., priority 2021, published 2024).
Where two headings read alike, the source gives them in different places. Blank lines part the entries; values can stand above or below the molecule they belong to.

Tests used:
[1] = biological target: SHP-2 enzyme (Met1-Leu525) (Homo sapiens (Human), UniProt Q06124); assay: SHP2 inhibition enzymatic assay; format: biochemical; conditions: 0.5 nM SHP-2 activated by 500 nM IRS1 peptide, 75 μM DiFMUP substrate; read-out: SHP2wt-IC50
SHP-2 enzyme (Met1-Leu525), sequence (Q06124 1-525): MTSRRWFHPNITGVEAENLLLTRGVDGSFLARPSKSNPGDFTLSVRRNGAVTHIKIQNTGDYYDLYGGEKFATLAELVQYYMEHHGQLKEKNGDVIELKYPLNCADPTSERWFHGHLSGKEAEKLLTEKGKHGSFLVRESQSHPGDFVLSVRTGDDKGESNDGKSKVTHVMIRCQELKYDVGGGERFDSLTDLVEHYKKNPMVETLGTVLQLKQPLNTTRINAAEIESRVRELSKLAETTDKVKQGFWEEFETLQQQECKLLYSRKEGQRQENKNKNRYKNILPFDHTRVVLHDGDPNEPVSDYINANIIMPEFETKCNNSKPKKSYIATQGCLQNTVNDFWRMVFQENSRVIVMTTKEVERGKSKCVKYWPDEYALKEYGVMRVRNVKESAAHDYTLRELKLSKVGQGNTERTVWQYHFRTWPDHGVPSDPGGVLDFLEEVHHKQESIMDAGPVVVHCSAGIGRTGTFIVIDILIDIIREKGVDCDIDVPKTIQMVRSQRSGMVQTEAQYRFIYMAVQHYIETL
Summary of the method: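 SHP-2 (Met1-Leu525), 0.5 nM, activated with 500 nM IRS1 bis-phosphopeptide, preincubated 30 min with compounds in HEPES pH 7.2 buffer with 5 mM DTT. 75 μM DiFMUP added for 30 min at room temperature, stopped with bpV; fluorescence read. IC50 from four-parameter logistic fit of % inhibition.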

[2] = system: ERK phosphorylation in KYSE-520 cells; assay: Phospho-ERK cellular assay; format: cell-based; conditions: KYSE-520 cells, 2 h at 37° C., phospho-ERK1/2 (Thr202/Tyr204) TR-FRET, read-out: PERK IC50
Summary of the method: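 TR-FRET read-out of ERK1/2 Thr202/Tyr204 phosphorylation was taken after overnight antibody incubation at room temperature. Before that, KYSE-520 cells were treated 2 h at 37 °C with compound dilutions and lysed 30 min. Percent inhibition relative to vehicle and cell-free wells was fitted four-parametrically to give IC50.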

Structure (SMILES): Cn1cc2c(Cl)c(-c3n[nH]c4nc(N5C[C@@H]6[C@H](C5)[C@@]6(CN)c5cccc(Cl)n5)cnc34)ccc2n1 [Example 494, ((1R,5S,6r)-3-(3-(4-chloro-2-methyl-2H-indazol-5-yl)-1H-pyrazolo[3,4-b]pyrazin-6-yl)-6-(6-chloropyridin-2-yl)-3-azabicyclo[3.1.0]hexan-6-yl)methanamine]
IC50 [1]: < 500 nM
IC50 ([2]; Homo sapiens, KYSE-520, 2 h): < 1000 nM

Structure (SMILES): Cn1cc2c(Cl)c(-c3n[nH]c4nc(N5C[C@@H]6[C@H](C5)[C@@]6(CN)c5ccc(F)cn5)cnc34)ccc2n1 [Example 495, ((1R,5S,6r)-3-(3-(4-chloro-2-methyl-2H-indazol-5-yl)-1H-pyrazolo[3,4-b]pyrazin-6-yl)-6-(5-fluoropyridin-2-yl)-3-azabicyclo[3.1.0]hexan-6-yl)methanamine]
IC50 [1]: < 500 nM
IC50 ([2]; Homo sapiens, KYSE-520, 2 h): < 1000 nM

Structure (SMILES): Cc1cccc([C@@]2(CN)[C@@H]3CN(c4cnc5c(-c6ccc7nn(C)cc7c6Cl)n[nH]c5n4)C[C@@H]32)n1 [Example 496, ((1R,5S,6r)-3-(3-(4-chloro-2-methyl-2H-indazol-5-yl)-1H-pyrazolo[3,4-b]pyrazin-6-yl)-6-(6-methylpyridin-2-yl)-3-azabicyclo[3.1.0]hexan-6-yl)methanamine]
IC50 [1]: < 500 nM
IC50 ([2]; Homo sapiens, KYSE-520, 2 h): < 1000 nM

Structure (SMILES): Cc1csc([C@@]2(CN)[C@@H]3CN(c4cnc5nc(Sc6ccnc(N)c6Cl)ccc5n4)C[C@@H]32)n1 [Example 497, 4-((2-((1R,5S,6r)-6-(aminomethyl)-6-(4-methylthiazol-2-yl)-3-azabicyclo[3.1.0]hexan-3-yl)pyrido[2,3-b]pyrazin-6-yl)thio)-3-chloropyridin-2-amine]
IC50 [1]: < 500 nM
IC50 ([2]; Homo sapiens, KYSE-520, 2 h): < 1000 nM

Structure (SMILES): Cc1csc([C@@]2(CN)[C@@H]3CN(c4cnc(Sc5ccnc(N)c5Cl)cn4)C[C@@H]32)n1 [Example 498, 4-((5-((1R,5S,6r)-6-(aminomethyl)-6-(4-methylthiazol-2-yl)-3-azabicyclo[3.1.0]hexan-3-yl)pyrazin-2-yl)thio)-3-chloropyridin-2-amine]
IC50 [1]: < 500 nM
IC50 ([2]; Homo sapiens, KYSE-520, 2 h): < 1000 nM

Structure (SMILES): Cn1cc2c(Cl)c(-c3n[nH]c4nc(N5C[C@@H]6[C@H](C5)[C@@]6(CN)c5ccccc5F)cnc34)ccc2n1 [Example 499, ((1R,5S,6s)-3-(3-(4-chloro-2-methyl-2H-indazol-5-yl)-1H-pyrazolo[3,4-b]pyrazin-6-yl)-6-(2-fluorophenyl)-3-azabicyclo[3.1.0]hexan-6-yl)methanamine]
IC50 [1]: < 500 nM
IC50 ([2]; Homo sapiens, KYSE-520, 2 h): < 1000 nM

Structure (SMILES): COc1nccc(-c2n[nH]c3nc(N4CC[C@@H]5[C@H](C4)[C@@]5(CN)c4ccccc4F)cnc23)c1Cl [Example 500]
IC50 [1]: < 500 nM
IC50 [2]: < 1000 nM

Structure (SMILES): Cc1nnc([C@@]2(CN)[C@@H]3CN(c4cnc5c(-c6ccc7nn(C)cc7c6Cl)n[nH]c5n4)C[C@@H]32)s1 [Example 501, ((1R,5S,6r)-3-(3-(4-chloro-2-methyl-2H-indazol-5-yl)-1H-pyrazolo[3,4-b]pyrazin-6-yl)-6-(5-methyl-1,3,4-thiadiazol-2-yl)-3-azabicyclo[3.1.0]hexan-6-yl)methanamine]
IC50 [1]: < 500 nM
IC50 ([2]; Homo sapiens, KYSE-520, 2 h): < 1000 nM

Further lines, results first:

IC50 [1]: < 500 nM
IC50 [2]: < 1000 nM
Structure (SMILES): Cc1csc(C2(CN)[C@@H]3CN(c4cnc5c(-c6ccc(C(N)=O)c7ncccc67)n[nH]c5n4)C[C@@H]32)n1 (stereo partly drawn) [Example 504]

IC50 [1]: < 500 nM
IC50 [2]: < 1000 nM
Structure (SMILES): Cc1csc([C@@]2(CN)[C@@H]3CN(c4cnc5c(-c6ccc7n[nH]cc7c6Cl)n[nH]c5n4)C[C@@H]32)n1 [Example 505]

IC50 [1]: < 500 nM
IC50 [2]: < 1000 nM
Structure (SMILES): Cc1csc([C@@]2(CN)[C@@H]3CN(c4cnc5c(-c6ccc7c(cnn7C(F)F)c6Cl)n[nH]c5n4)C[C@@H]32)n1 [Example 506]

IC50 [1]: < 500 nM
IC50 ([2]; Homo sapiens, KYSE-520, 2 h): < 1000 nM
Structure (SMILES): NC[C@]1(c2ccccc2F)[C@@H]2CCN(c3cnc4c(-c5ccc(F)c6ncccc56)c[nH]c4n3)C[C@@H]21 [Example 507, ((1S,6R,7R)-7-(2-fluorophenyl)-3-(7-(8-fluoroquinolin-5-yl)-5H-pyrrolo[2,3-b]pyrazin-3-yl)-3-azabicyclo[4.1.0]heptan-7-yl)methanamine]
